Source: paper PMC9452538, “The antimicrobial peptide LI14 combats multidrug-resistant bacterial infections” (Communications Biology, 2022)
Converted amounts (≈) assume the structure as drawn. Where two headings read alike, the source gives them in different places. Peptide text beside a SMILES is read from it.

What was measured:
S. aureus ATCC 29213 = assay: microbe, parasite or virus in culture; format: cell-based, Staphylococcus aureus
Procedure: (§1) An antimicrobial activity study was conducted on all peptides against a panel of laboratory bacteria, including ATCC source and clinical isolates with resistance determinants. According to CLSI2021 guidelines, we tested the minimum inhibitory concentrations (MICs) of peptides using standard broth micro-dilutions. Briefly, bacteria grown to exponential phase were diluted in 1:1000 to MHB, subsequently, equivalent amounts of bacterial suspension (1.5 × 10^6 CFUs/mL) were mixed with different concentrations of peptides in a sterilized 96-well microtiter plate (Corning).

MRSA T144 [1] = assay: microbe, parasite or virus in culture; format: cell-based, Staphylococcus aureus
Procedure: as §1

P. aeruginosa PA14 = assay: microbe, parasite or virus in culture; format: cell-based, Pseudomonas aeruginosa
Procedure: as §1

[2] = tested on: K. pneumoniae D120 (mcr-8); assay: microbe, parasite or virus in culture; format: cell-based, Klebsiella pneumoniae
Procedure: as §1

[3] = tested on: K. pneumoniae ATCC 700603; assay: microbe, parasite or virus in culture; format: cell-based, Klebsiella pneumoniae
Procedure: as §1

E. coli B2 = format: cell-based, Escherichia coli
Procedure: (§2) MRSA T144 and E. coli B2 in the exponential growth phase were incubated with LI14 peptide supplemented with 10 mM Na^+, K^+, Mg^2+, 10% Dulbecco’s modified Eagle medium (DMEM), and 10% fetal bovine serum (FBS) for 16–18 h. The stability of LI14 was evaluated by the change of its antibacterial activity under different conditions.
(§3) LI14 were preincubated for 1 h at various temperatures (40–121 °C), pH (2–12), and proteases (pepsin, trypsin, and papain, final concentration 1 mg/mL). […] Following the incubation with the proteases, the leftover protease was precipitated with acetonitrile and removed by centrifugation at 3000 × g, followed by a MIC test.
(§4) Supplementary Table 4 Thermal, pH, salts and protease stability of AMPs against
(§5) MRSA T144 and E. coli B2 (MIC, μg/mL).
(§6) Treatment MRSA T144 E. coli B2

MRSA T144 [4] = format: cell-based, Staphylococcus aureus
Procedure: as §2, §3, §4, §5, §6

[5] = tested on: E. coli B2 (blaNDM-5 + mcr-1); assay: microbe, parasite or virus in culture; format: cell-based, Escherichia coli
Procedure: as §1

E. coli ATCC 25922 = assay: microbe, parasite or virus in culture; format: cell-based, Escherichia coli
Procedure: as §1

[6] = tested on: A. baumannii C222 (tet(X6)); assay: microbe, parasite or virus in culture; format: cell-based, Acinetobacter baumannii
Procedure: as §1

A. baumannii ATCC 19609 = assay: microbe, parasite or virus in culture; format: cell-based, Acinetobacter baumannii
Procedure: as §1

[7] = tested on: P. cibarius HNCF44W (blaNDM-1 + tet(X6)); assay: organism not typed; format: cell-based
Procedure: as §1

E. faecium 5F-10 = assay: microbe, parasite or virus in culture; format: cell-based, Enterococcus faecium
Procedure: as §1

E. coli G6 (blaNDM-5) = assay: microbe, parasite or virus in culture; format: cell-based, Escherichia coli
Procedure: as §1

E. coli C3 (blaNDM-1) = assay: microbe, parasite or virus in culture; format: cell-based, Escherichia coli
Procedure: as §1

E. coli G92 (mcr-1) = assay: microbe, parasite or virus in culture; format: cell-based, Escherichia coli
Procedure: as §1

E. coli CP131 (mcr-3) = assay: microbe, parasite or virus in culture; format: cell-based, Escherichia coli
Procedure: as §1

E. coli B3-1 (tet(X4)) = assay: microbe, parasite or virus in culture; format: cell-based, Escherichia coli
Procedure: as §1

E. coli 1F28 (tet(X4)) = assay: microbe, parasite or virus in culture; format: cell-based, Escherichia coli
Procedure: as §1

[8] = tested on: S. enteritidis ATCC 13076; assay: microbe, parasite or virus in culture; format: cell-based
Procedure: as §1

E. faecalis 1F-1 = assay: microbe, parasite or virus in culture; format: cell-based
Procedure: as §1

[9] = tested on: E. faecalis A4 (VRE, VanA); assay: microbe, parasite or virus in culture; format: cell-based
Procedure: as §1

MRSA 1518 = assay: microbe, parasite or virus in culture; format: cell-based, Staphylococcus aureus
Procedure: as §1

MRSA 1530 = assay: microbe, parasite or virus in culture; format: cell-based, Staphylococcus aureus
Procedure: as §1

MDR E. coli B2 = assay: Checkerboard assay with LI14; format: cell-based, Escherichia coli
Procedure: Through checkerboard assay using two-fold serially diluted drugs (8 × 8 matrix), we evaluated the synergistic effects of LI14 with different mechanisms of antibiotics. The absorbance of cultures at 600 nm was determined by a Microplate reader after 18 h of incubation with (1.5 × 10^6 CFUs/mL) bacterial suspension. The FIC index (FICI) was calculated by performing two biological replicates for each combination. The formula is as follows: FIC index = FICIa + FICIb = MICab/MICa + MICba/Mb. An FIC index of ≤0.5 indicates synergy.
a/bMICs of antibiotics in the absence or presence of ¼ MIC of LI14.
cDegree of antibiotics potentiation in the presence of ¼ MIC of LI14.
–, none of potentiation activity.

S. aureus G16 (RIF^R) = assay: MIC broth microdilution; format: cell-based, Staphylococcus aureus; conditions: S. aureus G16 (RIF^R); MHB, 16-18 h, 37 °C
Procedure: as §1

[10] = tested on: S. aureus 215 (cfr + LZD^R); assay: MIC broth microdilution; format: cell-based, Staphylococcus aureus; conditions: S. aureus 215 (cfr + LZD^R); MHB, 16-18 h, 37 °C
Procedure: as §1

[11] = tested on: E. coli DH5α (PUC19-mcr-1); assay: MIC broth microdilution; format: cell-based, Escherichia coli; conditions: engineered E. coli DH5α (PUC19-mcr-1); MHB, 16-18 h, 37 °C
Procedure: as §1

E. coli DH5α (PUC19) = assay: MIC broth microdilution; format: cell-based, Escherichia coli; conditions: engineered E. coli DH5α (PUC19); MHB, 16-18 h, 37 °C
Procedure: as §1

CC[C@H](C)[C@H](NC(=O)[C@H](CCCNC(=N)N)NC(=O)[C@H](CS)NC(=O)[C@H](CC(C)C)NC(=O)[C@H](CCCCN)NC(=O)[C@H](CCCCN)NC(=O)[C@H](CC(C)C)NC(=O)[C@@H](NC(=O)[C@H](CCCNC(=N)N)NC(=O)[C@H](CS)NC(=O)[C@H](CC(C)C)NC(=O)[C@H](CCCCN)NC(=O)[C@H](CCCCN)NC(=O)[C@H](CC(C)C)NC(=O)[C@@H](NC(=O)[C@H](CCCNC(=N)N)NC(=O)[C@H](CS)NC(=O)[C@H](CC(C)C)NC(=O)[C@H](CCCCN)NC(=O)[C@H](CCCCN)NC(=O)[C@@H](N)CC(C)C)[C@@H](C)CC)[C@@H](C)CC)C(N)=O [LI21] (H-LKKLCRILKKLCRILKKLCRI-NH2; N-terminus and C-terminus assumed)
MIC (S. aureus ATCC 29213; ATCC 29213): 32 µg/mL (≈ 12.4 µM)
MIC (MRSA T144 [1]; T144): 32 µg/mL (≈ 12.4 µM)
MIC (P. aeruginosa PA14; PA14): 32 µg/mL (≈ 12.4 µM)
MIC ([2]; D120 (mcr-8)): 32 µg/mL (≈ 12.4 µM)
MIC ([3]; ATCC 700603): 64 µg/mL (≈ 24.8 µM)
MIC (E. coli B2; B2): 32 µg/mL (≈ 12.4 µM)
MIC (E. coli B2; B2, 1 h): > 128 µg/mL
MIC (E. coli B2; E. coli B2, MgCl2 10 mM): 64 µg/mL (≈ 24.8 µM)
MIC (MRSA T144 [4]; T144): 64 µg/mL (≈ 24.8 µM)
MIC (MRSA T144 [4]; T144, 1 h): > 128 µg/mL
MIC ([5]; B2 (blaNDM-5 + mcr-1)): 64 µg/mL
MIC (E. coli ATCC 25922; ATCC 25922): 64 µg/mL (≈ 24.8 µM)
MIC ([6]; C222 (tet(X6))): 32 µg/mL (≈ 12.4 µM)
MIC (A. baumannii ATCC 19609; ATCC 19609): 32 µg/mL (≈ 12.4 µM)
MIC [7]: 32 µg/mL (≈ 12.4 µM)
MIC (E. faecium 5F-10; 5F-10): 64 µg/mL (≈ 24.8 µM)
MIC (E. coli G6 (blaNDM-5); G6 (blaNDM-5)): 16 µg/mL (≈ 6.2 µM)
MIC (E. coli C3 (blaNDM-1); C3 (blaNDM-1)): 32 µg/mL (≈ 12.4 µM)
MIC (E. coli G92 (mcr-1); G92 (mcr-1)): 32 µg/mL (≈ 12.4 µM)
MIC (E. coli CP131 (mcr-3); CP131 (mcr-3)): 16 µg/mL (≈ 6.2 µM)
MIC (E. coli B3-1 (tet(X4)); B3-1 (tet(X4))): 32 µg/mL (≈ 12.4 µM)
MIC (E. coli 1F28 (tet(X4)); 1F28 (tet(X4))): 32 µg/mL (≈ 12.4 µM)
MIC ([8]; ATCC 13076): 32 µg/mL (≈ 12.4 µM)
MIC (E. faecalis 1F-1; 1F-1): 64 µg/mL (≈ 24.8 µM)
MIC ([9]; A4 (VRE, VanA)): 32 µg/mL (≈ 12.4 µM)
MIC (MRSA 1518; 1518): 32 µg/mL (≈ 12.4 µM)
MIC (MRSA 1530; 1530): 32 µg/mL (≈ 12.4 µM)

Colistin
MIC (S. aureus ATCC 29213; S. aureus ATCC 29213, MHB, 16-18 h, 37 °C): 16 µg/mL
MIC (MRSA T144 [1]; MRSA T144, MHB, 16-18 h, 37 °C): 16 µg/mL
MIC (P. aeruginosa PA14; P. aeruginosa PA14, MHB, 16-18 h, 37 °C): 1 µg/mL
FIC index (MDR E. coli B2; antibiotic in combination with LI14, checkerboard 8 × 8, 18 h, ≤0.5 = synergy): 2
MICa of antibiotic (MDR E. coli B2; in the absence of LI14): 8 µg/mL
MICb of antibiotic (MDR E. coli B2; in the presence of ¼ MIC of LI14): 8 µg/mL
MIC ([2]; K. pneumoniae D120 (mcr-8), MHB, 16-18 h, 37 °C): 4 µg/mL
MIC ([3]; K. pneumoniae ATCC 700603, MHB, 16-18 h, 37 °C): 1 µg/mL
MIC (S. aureus G16 (RIF^R)): 1 µg/mL
MIC [10]: 16 µg/mL
MIC ([5]; E. coli B2 (blaNDM-5 + mcr-1), MHB, 16-18 h, 37 °C): 8 µg/mL
MIC (E. coli ATCC 25922; E. coli ATCC 25922, MHB, 16-18 h, 37 °C): 0.5 µg/mL
MIC ([6]; A. baumannii C222 (tet(X6)), MHB, 16-18 h, 37 °C): <0.125 µg/mL
MIC (A. baumannii ATCC 19609; A. baumannii ATCC 19609, MHB, 16-18 h, 37 °C): 0.125 µg/mL
MIC ([7]; P. cibarius HNCF44W (blaNDM-1 + tet(X6)), MHB, 16-18 h, 37 °C): >256 µg/mL
MIC (E. faecium 5F-10; E. faecium 5F-10, MHB, 16-18 h, 37 °C): >64 µg/mL
MIC [11]: 2 µg/mL
MIC (E. coli DH5α (PUC19)): <0.125 µg/mL
MIC (E. coli G6 (blaNDM-5); E. coli G6 (blaNDM-5), MHB, 16-18 h, 37 °C): 0.5 µg/mL
MIC (E. coli C3 (blaNDM-1); E. coli C3 (blaNDM-1), MHB, 16-18 h, 37 °C): <0.125 µg/mL
MIC (E. coli G92 (mcr-1); E. coli G92 (mcr-1), MHB, 16-18 h, 37 °C): 4 µg/mL
MIC (E. coli CP131 (mcr-3); E. coli CP131 (mcr-3), MHB, 16-18 h, 37 °C): 2 µg/mL
MIC (E. coli B3-1 (tet(X4)); E. coli B3-1 (tet(X4)), MHB, 16-18 h, 37 °C): 0.0625 µg/mL
MIC (E. coli 1F28 (tet(X4)); E. coli 1F28 (tet(X4)), MHB, 16-18 h, 37 °C): 0.125 µg/mL
MIC ([8]; S. enteritidis ATCC 13076, MHB, 16-18 h, 37 °C): 0.25 µg/mL
MIC (E. faecalis 1F-1; E. faecalis 1F-1, MHB, 16-18 h, 37 °C): >64 µg/mL
MIC ([9]; E. faecalis A4 (VRE, VanA), MHB, 16-18 h, 37 °C): 64 µg/mL
MIC (MRSA 1518; MRSA 1518, MHB, 16-18 h, 37 °C): 16 µg/mL
MIC (MRSA 1530; MRSA 1530, MHB, 16-18 h, 37 °C): 16 µg/mL
